Measured values from patent US20260297542A1, “HERBICIDE RESISTANT PLANTS” (SYNGENTA CROP PROTECTION AG, priority 2023, published 2026).
Substitutions are numbered along the chain they refer to.

Experiments:
Test in all cases: E. coli hemG growth inhibition by herbicide, AtPPO1 variant
Assay type in all cases: cell-based
Details in all cases: read-out: percentage growth inhibition
[1] = target: T1, AtPPO1 V447C (Arabidopsis thaliana, UniProt P55826, V447C)
T1 construct: expressed in transfected cells; host or cells: E. coli BL21(DE3) hemG (pET24a, T7 promoter)
T1 sequence (P55826 35-537 V447C): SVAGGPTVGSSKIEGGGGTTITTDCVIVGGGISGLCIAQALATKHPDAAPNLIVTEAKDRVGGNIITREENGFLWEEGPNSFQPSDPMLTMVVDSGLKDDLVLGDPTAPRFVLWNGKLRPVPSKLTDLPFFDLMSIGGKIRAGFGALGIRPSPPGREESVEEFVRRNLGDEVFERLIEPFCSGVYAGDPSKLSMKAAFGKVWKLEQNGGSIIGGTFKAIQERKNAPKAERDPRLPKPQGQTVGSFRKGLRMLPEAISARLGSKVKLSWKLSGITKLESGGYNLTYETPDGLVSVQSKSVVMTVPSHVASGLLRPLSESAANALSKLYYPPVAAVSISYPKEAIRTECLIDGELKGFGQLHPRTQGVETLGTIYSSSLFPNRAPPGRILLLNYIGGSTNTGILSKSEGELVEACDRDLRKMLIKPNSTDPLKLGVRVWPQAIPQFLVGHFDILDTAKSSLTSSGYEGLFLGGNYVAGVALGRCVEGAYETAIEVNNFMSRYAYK
Procedure, shortened: (§1)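 E. coli BL21(DE3) ΔhemG::CmR complemented by AtPPO1 variants (pET24a, T7, E. coli codon-optimised); TB + 0.1 mM IPTG, 1:100 inoculum; 6.25 ppm herbicide 0/E or 0.78 ppm herbicide B vs DMSO; 24 h, 37° C, 250 rpm; OD600 at 24 h → % growth inhibition.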

[2] = target: T2, AtPPO1 Y219S (Arabidopsis thaliana, UniProt P55826, Y219S)
T2 construct: expressed in transfected cells; host or cells: E. coli BL21(DE3) hemG (hemG replaced by CmR), pET24a plasmid
T2 sequence (P55826 35-537 Y219S): T1 sequence (P55826 35-537 V447C) with Y185S, C413V
Procedure, shortened: as §1

[3] = target: T3, AtPPO1 Y426V (Arabidopsis thaliana, UniProt P55826, Y426V)
T3 construct: expressed in transfected cells; host or cells: E. coli BL21(DE3) hemG (pET24a, T7 promoter)
T3 sequence (P55826 35-537 Y426V): T1 sequence (P55826 35-537 V447C) with Y392V, C413V
Procedure, shortened: as §1

[4] = target: T4, AtPPO1 Y426L (Arabidopsis thaliana, UniProt P55826, Y426L)
T4 construct: expressed in transfected cells; host or cells: E. coli BL21(DE3) hemG (pET24a, T7 promoter)
T4 sequence (P55826 35-537 Y426L): T1 sequence (P55826 35-537 V447C) with Y392L, C413V
Procedure, shortened: as §1

SMILES	inhibition at 6.25 ppm [1] [%]	inhibition at 6.25 ppm [2] [%]	inhibition at 6.25 ppm [3] [%]	inhibition at 6.25 ppm [4] [%]	inhibition at 0.78 ppm [1] [%]	inhibition at 0.78 ppm [2] [%]	inhibition at 0.78 ppm [3] [%]	inhibition at 0.78 ppm [4] [%]
CC(C)N(C)S(=O)(=O)NC(=O)c1cc(-n2c(=O)cc(C(F)(F)F)n(C)c2=O)c(F)cc1Cl [Herbicide E, saflufenacil]	53	49	7	12				
C#CCN1C(=O)C(F)(F)Oc2cc(F)c(-n3c(=O)n(C)c(=S)n(C)c3=O)cc21 [Herbicide B, trifludimoxazin]					34	28	5	15
CCOC(=O)[C@]1(C)CC(c2cc(-n3c(=O)n(C)c(=S)n(C)c3=O)c(F)cc2Cl)=NO1 [Herbicide D, ethyl (5S)-3-[2-chloro-5-(3,5-dimethyl-2,6-dioxo-4-thioxo-1,3,5-triazinan-1-yl)-4-fluoro-phenyl]-5-methyl-4H-isoxazole-5-carboxylate]	32	33	16	25				
